Measurements published in ChEMBL document CHEMBL5500352, “ML162 derivatives incorporating a naphthoquinone unit as ferroptosis/apoptosis inducers: Design, synthesis, anti-cancer activity, and drug-resistance reversal evaluation” (Eur J Med Chem, 2024).
Activity calls are given as the source filed them. The rule behind the calls is not given here.

Columns and labels:
[1] = system: HT-1080; assay: Induction of apoptosis in human HT-1080 cells assessed as necrotic cells at 4 uM incubated for 24 hrs by Annexin-V FITC/PI staining based flow cytometry analysis (reference value: 3.98%); format: functional
[2] = system: HT-1080; assay: Inhibition of cell migration in human HT-1080 cells incubated for 24 to 48 hrs by inverted microscope based wound healing assay; format: functional; conditions: dose 1-2 µM, time 24-48 hrs
[3] = system: HT-1080; assay: Induction of apoptosis in human HT-1080 cells assessed as early apoptotic cells at 1 uM incubated for 24 hrs by Annexin-V FITC/PI staining based flow cytometry analysis (reference value: 1.85%); format: functional
[4] = system: HT-1080; assay: Antitumor activity against human HT-1080 cells xenografted in BALB/c nude mouse assessed as tumor growth inhibition at 20 mg/kg, ip administered once daily for 19 days and measured every 2 days; format: functional, organism-based; conditions: time 19.0 day
[5] = Toxicity in BALB/c nude mouse xenografted with human HT-1080 cells assessed as cellular inflammation at 20 to 40 mg/kg, ip administered once daily for 19 days and measured every 2 days by H and E staining based assay; format: organism-based; conditions: in vivo, 456 h, dose 20-40 mg/kg, time 19 day
[6] = Toxicity in BALB/c nude mouse xenografted with human HT-1080 cells assessed as change in heart morphology at 20 to 40 mg/kg, ip administered once daily for 19 days and measured every 2 days by H and E staining based assay; format: organism-based; conditions: in vivo, 456 h, dose 20-40 mg/kg, time 19 day
[7] = system: HT-1080; assay: Induction of apoptosis in human HT-1080 cells assessed as early apoptosis at 1 to 2 uM incubated for 48 hrs by Annexin-V FITC/PI staining based flow cytometry analysis; format: functional, cell-based; conditions: dose 1-2 µM
[8] = system: HT-1080; assay: Induction of apoptosis in human HT-1080 cells assessed as late apoptotic cells at 2 uM incubated for 24 hrs by Annexin-V FITC/PI staining based flow cytometry analysis (reference value: 1.66%); format: functional
[9] = Toxicity in BALB/c nude mouse xenografted with human HT-1080 cells assessed as edema at 20 to 40 mg/kg, ip administered once daily for 19 days and measured every 2 days by H and E staining based assay; format: organism-based; conditions: in vivo, 456 h, dose 20-40 mg/kg, time 19 day
[10] = Toxicity in BALB/c nude mouse xenografted with human HT-1080 cells assessed as change in lung morphology at 20 to 40 mg/kg, ip administered once daily for 19 days and measured every 2 days by H and E staining based assay; format: organism-based; conditions: in vivo, 456 h, dose 20-40 mg/kg, time 19 day
[11] = system: HT-1080; assay: Induction of ferroptosis in human HT-1080 cells assessed as appearance of broken outer membrane of mitochondria at 4 uM after 24 hrs by transmission electron microscope analysis; format: functional, cell-based
[12] = system: HT-1080; assay: Induction of apoptosis in human HT-1080 cells assessed as early apoptotic cells at 2 uM incubated for 24 hrs by Annexin-V FITC/PI staining based flow cytometry analysis (reference value: 1.85%); format: functional
[13] = system: HT-1080; assay: Induction of apoptosis in human HT-1080 cells assessed as viable cells at 2 uM incubated for 24 hrs by Annexin-V FITC/PI staining based flow cytometry analysis (reference value: 92.5%); format: functional; conditions: read-out: Activity
[14] = system: HT-1080; assay: Induction of apoptosis in human HT-1080 cells assessed as late apoptotic cells at 4 uM incubated for 24 hrs by Annexin-V FITC/PI staining based flow cytometry analysis (reference value: 1.66%); format: functional
[15] = system: HT-1080; assay: Induction of apoptosis in human HT-1080 cells assessed as increase in Bax level after 24 hrs by Western blotting analysis; format: functional, cell-based; conditions: dose 0.5-4 µM
[16] = system: HT-1080; assay: Induction of ferroptosis in human HT-1080 cells assessed as accumulation of lipid peroxidation at 10 uM after 6 hrs by BODIPYTM 581/591C11 probe based flow cytometry assay; format: functional, cell-based

For O=C(CCCCCNC1=CC(=O)c2ccccc2C1=O)Nc1ccc(N(C(=O)CCl)C(C(=O)NCCc2ccccc2)c2cccs2)cc1 (stereo unspecified), the Activity [1] was 3.03%, the inhibition [2] was “Dose-Dependent Effect” and the Activity [3] was 3.85%. For the same molecule, the Activity [4] was “Active”, the Activity [5] was “Non-Toxic” and the Activity [6] was “Non-Toxic”. The Activity [7] was “Active”, the Activity [8] was 4.75% and the Activity [9] was “Non-Toxic”. For the same molecule, the Activity [10] was “Non-Toxic”, the Activity [11] was “Active” and the Activity [12] was 8.48%. For the same molecule, the viability at 2 µM [13] was 82.7%, the Activity [14] was 7.99% and the Activity [15] was “Dose-Dependent Effect”. For the same molecule, the Activity [16] was “Active”.
